The species named for test [1] is Mus musculus. In words: Activation of XBP1 mRNA splicing in tunicamycin-stimulated mouse B16F10 cells harboring XBP1-DBD-luc treated 24 hrs post tunicamycin measured after 8 hrs by luciferase reporter gene assay relative to control. Background: A reporter such as luciferase makes a cellular process visible.
Test [2] is filed under the species Mus musculus. In words: Activation of XBP1 mRNA splicing in tunicamycin-stimulated mouse B16F10 cells harboring XBP1-DBD-luc at 10 ug/ml treated 24 hrs post tunicamycin measured after 8 hrs by luciferase reporter gene assay relative to control.
Test [3] is filed under the species Mus musculus. Nature of the test: Activation of XBP1 mRNA splicing in tunicamycin-stimulated mouse B16F10 cells harboring XBP1-DBD-luc at 1 ug/ml after 8 hrs by luciferase reporter gene assay relative to control.

The source made the active and inactive calls. No cut-off for these calls is given here.

Turning to `CCc1oc([C@H](C)[C@@]2(O)O[C@@H]([C@@H](C)c3oc([C@@H](C)[C@@H](O)CC)c(C)c(=O)c3C)[C@@H](C)[C@H](OC(=O)CC(C)C)[C@@H]2C)c(C)c(=O)c1C`, in test [1], the outcome was inactive.

In test [2], `CCC(=O)[C@H](C)c1oc([C@H](C)[C@@H]2O[C@](O)([C@@H](C)c3oc(CC)c(C)c(=O)c3C)[C@@H](C)[C@@H](OC(=O)CC(C)C)[C@@H]2C)c(C)c(=O)c1C` showed an Activity of 210% and a fold change (FC) of 2.

For `CCC(=O)O[C@@H](CC)[C@H](C)c1oc([C@H](C)[C@@H]2O[C@](O)([C@@H](C)c3oc(CC)c(C)c(=O)c3C)[C@@H](C)[C@@H](OC(=O)CC(C)C)[C@@H]2C)c(C)c(=O)c1C`, the result in test [1] was inactive.

In the case of `CCCCCCCCCCCCC/C=C/C(=O)N[C@H]1[C@H](O[C@H]2O[C@H](CO)[C@@H](O)[C@H](O)[C@H]2NC(C)=O)O[C@H](CC(O)[C@H]2O[C@@H](n3ccc(=O)[nH]c3=O)[C@H](O)[C@@H]2O)[C@H](O)[C@@H]1O` (some centres undefined), the Activity in test [3] was 178%.

Consider `CCc1oc([C@H](C)[C@@]2(O)O[C@@H]([C@@H](C)c3oc([C@@H](C)[C@H](CC)OC(C)=O)c(C)c(=O)c3C)[C@@H](C)[C@H](OC(=O)CC(C)C)[C@@H]2C)c(C)c(=O)c1C`, for which, in test [2], the Activity is 234% and the fold change (FC) worked out at 2.

In test [2], `CCC(=O)[C@@H](C)c1oc([C@H](C)[C@@H]2O[C@](O)([C@@H](C)c3oc(CC)c(C)c(=O)c3C)[C@@H](C)[C@@H](OC(=O)CC(C)C)[C@@H]2C)c(C)c(=O)c1C` showed an Activity of 218% and a fold change (FC) of 2.

These data come from ChEMBL document CHEMBL4184288, “Marine bis-γ-pyrone polypropionates of onchidione family and their effects on the XBP1 gene expression” (Bioorg Med Chem Lett, 2018).
